Data: ChEMBL document CHEMBL3769389, “Development of a potent 2-oxoamide inhibitor of secreted phospholipase A2 guided by molecular docking calculations and molecular dynamics simulations” (Bioorg Med Chem, 2016)

Legend:
[1] = target: T1, Phospholipase A2, membrane associated (Homo sapiens) (UniProt P14555); test: Inhibition of human group 2A secreted phospholipase A2 at 1 uM by fluorescence assay
T1 sequence (whole entry): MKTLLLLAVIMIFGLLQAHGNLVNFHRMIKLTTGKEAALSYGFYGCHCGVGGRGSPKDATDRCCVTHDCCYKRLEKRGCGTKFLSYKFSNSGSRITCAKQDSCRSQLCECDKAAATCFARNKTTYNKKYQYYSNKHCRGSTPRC

[2] = target: T2, Phospholipase A2, membrane associated (Mus musculus) (UniProt P31482); test: Inhibition of mouse group 2A secreted phospholipase A2 at 1 uM by fluorescence assay
T2 sequence (whole entry): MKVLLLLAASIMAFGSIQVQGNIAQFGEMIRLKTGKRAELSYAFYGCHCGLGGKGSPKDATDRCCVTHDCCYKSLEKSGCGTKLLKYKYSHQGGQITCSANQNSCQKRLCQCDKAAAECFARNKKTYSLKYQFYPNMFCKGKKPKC

[3] = target: Phospholipase A2 (Homo sapiens) (UniProt P04054); test: Inhibition of human group 1B secreted phospholipase A2 at 10 uM by fluorescence assay
[4] = target: T3, Group 10 secretory phospholipase A2 (Homo sapiens) (UniProt O15496); test: Inhibition of human group 10 secreted phospholipase A2 at 10 uM by fluorescence assay
T3 sequence (whole entry): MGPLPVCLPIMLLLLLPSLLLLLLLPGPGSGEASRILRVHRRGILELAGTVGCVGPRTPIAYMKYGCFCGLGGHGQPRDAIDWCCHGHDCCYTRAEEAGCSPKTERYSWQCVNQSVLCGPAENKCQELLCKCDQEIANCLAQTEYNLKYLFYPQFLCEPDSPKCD

[5] = target: T1, Phospholipase A2, membrane associated (Homo sapiens); test: Inhibition of human group 2A secreted phospholipase A2 at 10 uM by fluorescence assay
[6] = target: T4, Phospholipase A2 group V (Homo sapiens) (UniProt P39877); test: Inhibition of human group 5 secreted phospholipase A2 at 10 uM by fluorescence assay
T4 sequence (whole entry): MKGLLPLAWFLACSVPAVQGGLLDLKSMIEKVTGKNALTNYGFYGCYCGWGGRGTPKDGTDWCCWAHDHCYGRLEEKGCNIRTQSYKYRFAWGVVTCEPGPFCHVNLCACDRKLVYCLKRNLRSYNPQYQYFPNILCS

[7] = target: T5, Phospholipase A2, membrane associated (Homo sapiens, UniProt P14555); test: Inhibition of human group 2A secreted phospholipase A2 by fluorescence assay
T5 sequence (P14555 whole entry): T1 sequence (whole entry)

[8] = target: T6, Phospholipase A2 group V (Mus musculus) (UniProt P97391); test: Inhibition of mouse group 5 secreted phospholipase A2 assessed as remaining activity at 1000 nM by fluorescence assay
T6 sequence (whole entry): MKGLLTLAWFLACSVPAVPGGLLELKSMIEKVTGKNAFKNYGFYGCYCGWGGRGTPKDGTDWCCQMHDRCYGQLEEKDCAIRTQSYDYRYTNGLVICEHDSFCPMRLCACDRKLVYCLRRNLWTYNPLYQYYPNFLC

[9] = target: T2, Phospholipase A2, membrane associated (Mus musculus); test: Potency index, ratio of GK126 IC50 to compound IC50 for mouse group 2A secreted phospholipase A2
[10] = target: T7, Phospholipase A2 group V (Homo sapiens, UniProt P39877); test: Inhibition of human group 5 secreted phospholipase A2 by fluorescence assay
T7 sequence (P39877 whole entry): T4 sequence (whole entry)

[11] = target: T8, Group IID secretory phospholipase A2 (Mus musculus) (UniProt Q9WVF6); test: Inhibition of mouse 2D secreted phospholipase A2 assessed as remaining activity at 1000 nM by fluorescence assay
T8 sequence (whole entry): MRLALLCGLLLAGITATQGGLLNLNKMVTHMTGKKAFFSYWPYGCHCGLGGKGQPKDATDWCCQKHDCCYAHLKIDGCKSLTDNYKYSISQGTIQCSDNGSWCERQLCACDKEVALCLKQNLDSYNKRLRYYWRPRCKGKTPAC

[12] = species on record: Homo sapiens; test: Selectivity ratio of IC50 for human group 5 secreted phospholipase A2 to human group 2A secreted phospholipase A2
[13] = target: T9, Group 10 secretory phospholipase A2 (Mus musculus) (UniProt Q9QXX3); test: Inhibition of mouse group 10 secreted phospholipase A2 assessed as remaining activity at 1000 nM by fluorescence assay
T9 sequence (whole entry): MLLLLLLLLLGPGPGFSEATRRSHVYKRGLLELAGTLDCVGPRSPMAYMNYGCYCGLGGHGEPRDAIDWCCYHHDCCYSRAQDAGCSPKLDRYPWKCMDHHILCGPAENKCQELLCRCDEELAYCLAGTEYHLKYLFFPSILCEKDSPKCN

[14] = target: T3, Group 10 secretory phospholipase A2 (Homo sapiens); test: Inhibition of human group 10 secreted phospholipase A2 assessed as remaining activity at 1000 nM by fluorescence assay
[15] = target: T1, Phospholipase A2, membrane associated (Homo sapiens); test: Potency index, ratio of GK126 IC50 to compound IC50 for human group 2A secreted phospholipase A2
[16] = target: T10, Phospholipase A2, membrane associated (Mus musculus, UniProt P31482); test: Inhibition of mouse group 2A secreted phospholipase A2 by fluorescence assay
T10 sequence (P31482 whole entry): T2 sequence (whole entry)

[17] = target: Phospholipase A2 (Homo sapiens) (UniProt P04054); test: Inhibition of human group 1B secreted phospholipase A2 assessed as remaining activity at 1000 nM by fluorescence assay
[18] = target: T11, Group IIE secretory phospholipase A2 (Homo sapiens) (UniProt Q9NZK7); test: Inhibition of human group 2E secreted phospholipase A2 assessed as remaining activity at 1000 nM by fluorescence assay
T11 sequence (whole entry): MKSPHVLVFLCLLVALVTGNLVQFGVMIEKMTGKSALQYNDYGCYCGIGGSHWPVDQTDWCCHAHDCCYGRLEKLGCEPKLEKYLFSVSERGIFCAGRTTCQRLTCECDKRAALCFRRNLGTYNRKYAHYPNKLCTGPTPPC

[19] = target: T12, Group IIF secretory phospholipase A2 (Homo sapiens) (UniProt Q9BZM2); test: Inhibition of human group 2F secreted phospholipase A2 assessed as remaining activity at 1000 nM by fluorescence assay
T12 sequence (whole entry): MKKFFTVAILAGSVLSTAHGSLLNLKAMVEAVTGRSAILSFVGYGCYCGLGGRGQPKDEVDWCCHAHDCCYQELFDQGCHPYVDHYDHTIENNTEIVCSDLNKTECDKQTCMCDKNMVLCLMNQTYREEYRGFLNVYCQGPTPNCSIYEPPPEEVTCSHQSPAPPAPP

Chain of Phospholipase A2 (Homo sapiens) (P04054 23-148 limits assumed): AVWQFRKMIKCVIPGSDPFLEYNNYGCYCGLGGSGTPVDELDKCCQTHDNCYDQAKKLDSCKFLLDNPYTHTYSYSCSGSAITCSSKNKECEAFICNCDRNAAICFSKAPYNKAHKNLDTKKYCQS

| inhibition [1] [%] | inhibition [2] [%] | inhibition [3] [%] | inhibition [4] [%] | inhibition [5] [%] | inhibition [6] [%] | SMILES | other results |
| --- | --- | --- | --- | --- | --- | --- | --- |
| – | – | 30 | 54 | 21 | 50 | CC(C)[C@H](NC(=O)C(=O)CCCCc1ccc(-c2ccccc2)cc1)C(=O)O | – |
| < 25 | < 25 | – | – | – | – | CCCCCCCCCCCCCCC(=O)C(=O)N[C@@H](C)C(=O)O | – |
| – | – | 56 | 40 | 11 | 40 | CC(C)[C@H](NC(=O)C(=O)CCCCc1ccccc1)C(=O)O | – |
| – | – | 50 | 56 | 50 | 53 | CC(C)[C@H](NC(=O)C(=O)c1ccc2ccccc2c1)C(=O)O | – |
| – | – | 20 | 51 | 27 | 26 | CC(C)[C@H](NC(=O)C(=O)CCCCc1ccc2ccccc2c1)C(=O)O | – |

The next lines start with the compound.

| SMILES | inhibition [1] [%] | inhibition [2] [%] | inhibition [3] [%] | inhibition [4] [%] | inhibition [5] [%] | inhibition [6] [%] | other results |
| --- | --- | --- | --- | --- | --- | --- | --- |
| CCCCCCCCCCCCCCC(=O)C(=O)N[C@@H](CCC(=O)O)C(=O)O | < 25 | < 25 | – | – | – | – | – |
| CCCCCCCCCCCCCCC(=O)C(=O)N[C@H](C(=O)O)C(C)(C)C | < 25 | < 25 | – | – | – | – | – |
| CCCCCCCCCCCCCCC(=O)C(=O)NC(C)(C)C(=O)O | < 25 | < 25 | – | – | – | – | – |
| CCCCCCCCCCCCCCC(=O)C(=O)N1CCC[C@H]1C(=O)O | < 25 | < 25 | – | – | – | – | – |
| CCCCCCCCCCCCCCC(=O)C(=O)N[C@@H](CCC(=O)O)C(=O)OCC | < 25 | < 25 | – | – | – | – | – |
| CCCCCCCCCCCCCCC(=O)C(=O)N[C@H](C(=O)O)C(C)C | – | – | – | – | – | – | IC50 [7]: 143 nM; Activity [8]: 90%; Ratio IC50 [9]: 2; IC50 [10]: 1200 nM; Activity [11]: 99%; Ratio IC50 [12]: 10; Activity [13]: 98%; Activity [14]: 95%; Ratio IC50 [15]: 2; IC50 [16]: 68 nM; Activity [17]: 98%; Activity [18]: 93%; Activity [19]: 94% |
